The results in this text go back to patent US20180002400A1, “SHORT PEPTIDE-BASED THERAPEUTIC AGENT AND MEDICINAL COMPOSITION INCLUDING THE SAME FOR INHIBITING ACTIVITIES OF CANCER CELLS” (NATIONAL CHENG KUNG UNIVERSITY, priority 2015, published 2018).

What all share (type): cell-based, human
Series [1] deals with breast cancer MB231 cell. Put plainly: Drug resistance (CDDP, 5-FU) induced by euPTX3, MTT assay. As to conditions: MB231 only co-cultured with euPTX3 2.5 μg/mL vs without euPTX3; FIG. 1D. The protocol: (§1) The cell density 1×10^4 cells/well of the breast cancer MB231 cell, the lung cancer A549 cell and the nasopharyngeal cancer HONE1 cell were co-cultured with the short peptides RI37, GI40 and KT44 (10 μg/mL or 225 nM of the short peptide) and the polypeptide euPTX3 (2.5 μg/mL) of Example 1. After 1 week of cultivation, those cancer cells were added with 40 μM of CDDP or 100 μM of 5-FU respectively and cultured for 48 hours. Based on the cell viability of the cells only co-cultured with the polypeptide euPTX3 (2.5 μg/mL) as 100%, the influence of drug resistance of the cancer cells of Example 2 using the short peptides of Example 1 could be determined according to the aforementioned MTT assay.

In series [2] the test system is lung cancer A549 cell. The series is described as above. As to conditions: A549 only co-cultured with euPTX3 2.5 μg/mL vs without euPTX3; FIG. 2B. The procedure:
as §1

Series [3] deals with nasopharyngeal cancer HONE1 cell. Described as above. Conditions: HONE1 only co-cultured with euPTX3 2.5 μg/mL vs without euPTX3; FIG. 3B. The protocol: as §1
The subject of series [4] is drug-resistant breast cancer MB231R (MBR) cells. Put plainly: Cancer cell migration (Boyden chamber) induced by euPTX3. The procedure: [The procedure below names another cell line; the source lists this cell line under the same test.] (§2) The cell density 5×10^4 cells/well of the breast cancer MB231 cell, the lung cancer A549 cell and the nasopharyngeal cancer HONE1 cell were seeded into each upper insert of 24-well plate (containing 8-μm pore insert per well; BD Biosciences) for 19 hours, and each lower well was added with the short peptides RI37, GI40 and KT44 (10 μg/mL or 225 nM of the short peptide) and the polypeptide euPTX3 (2.5 μg/mL) of Example 1, for evaluating the influence of migration of the cancer cell of Example 2 using several short peptides of Example 1.
(§3) The cell density 5×10^4 cells/well of the breast cancer MB231 cell, the lung cancer A549 cell and the nasopharyngeal cancer HONE1 cell were seeded into each upper insert of Boyden chamber for 3 hours of cultivation.
(§4) And then, the medium in each upper insert was replaced by serum-free medium, and the medium in each lower well was added with the short peptides RI37, GI40, KT44 and the polypeptide euPTX3 of Example 1. The cells inside each upper insert were wiped with cotton swabs and removed after 16 hours of cultivation. Remaining cells that had migrated to the bottom of the insert membrane were stained by 4′,6-diamidino-2-phenylindole (DAPI; Invitrogen) and calculated under fluorescence microscopy with 200-fold magnification.

Series [5] relates to lung cancer A549 cell. The description is as above. As to conditions: A549 only co-cultured with euPTX3 2.5 μg/mL; FIG. 2C left panel. The procedure: as §2, §3, §4
The test system of series [6] is nasopharyngeal cancer HONE1 cell. The description is as above. Conditions: HONE1 only co-cultured with euPTX3 2.5 μg/mL; FIG. 3C left panel. The procedure: as §2, §3, §4
The test system of series [7] is drug-resistant breast cancer MB231R (MBR) cells. Put plainly: Cancer cell invasion (matrigel-coated insert) induced by euPTX3.
The test system of series [8] is lung cancer A549 cell. Described as above. Conditions: A549 only co-cultured with euPTX3 2.5 μg/mL; FIG. 2C right panel. The procedure: (§5) The cell density 5×10^4 cells/well of the breast cancer MB231 cell, the lung cancer A549 cell and the nasopharyngeal cancer HONE1 cell were seeded into each upper insert of 24-well plate (containing 8-μm pore insert per well; BD Biosciences), the upper insert and the lower well were separated by the polyethelene terephthalate membrane coated with matrigel (purchased from BD Bioscience), and cultured for 3 hours.
(§6) Next, the medium in each upper insert was replaced by serum-free medium, and the medium in each lower well was added with the short peptides RI37, GI40, KT44 and the polypeptide euPTX3 and pPTX3/C of Example 1. The cells inside each upper insert were wiped with cotton swabs and removed after 16 hours of cultivation. Remaining cells that had migrated to the bottom of the insert membrane were stained by 4′, 6-diamidino-2-phenylindole (DAPI; Invitrogen) and calculated under fluorescence microscopy with 200-fold magnification.

Series [9] has as its system nasopharyngeal cancer HONE1 cell. The series is described as above. As to conditions: HONE1 only co-cultured with euPTX3 2.5 μg/mL; FIG. 3C right panel. The procedure:
as §5, §6

Turning to “euPTX3: commercially available PTX3 product (R&D system Inc.), recombinant protein purified from mouse myeloma cells (NS0)”, the “drug resistance to CDDP or 5-FU (cell viability)” value in [1], in [2] and in series [3] was “increase drug resistance to CDDP or 5-FU” in each case. The migrated cell numbers entry in [4] (breast cancer cells only co-cultured with euPTX3 2.5 μg/mL, FIG. 1E, 5B left panels) is “increase migrated cell numbers”; in [5] it was “increase migrated cell numbers”; in [6] it was “increase migrated cell numbers”. The invasive cell numbers entry in series [7] (breast cancer cells only co-cultured with euPTX3 2.5 μg/mL, FIG. 1E, 5B right panels) is “increase invasive cell numbers”; in series [8] it was “increase invasive cell numbers”; in [9], “increase invasive cell numbers”.

B1: pPTX3/C: recombinant protein (SEQ ID NO:4) expressed and purified from prokaryotic expression system (E. coli); control group (protein)
chain: ETAILFPMRSKKIFGSVHPVRPMRLESFSACIWVKATDVLNKTILFSYGTKRNPYEIQLYLSYQSIVFVVGGEENKLVAEAMVSLGRWTHLCGTWNSEEGLTSLWVNGELAATTVEMATGHIVPEGGILQIGQEKNGCCVGGGFDETLAFSGRLTGFNIWDSVLSNEEIRETGGAESCHIRGNIVGWGVTEIQPHGGAQYVS
modifications: The 180th amino acid to 381th amino acid of Human sapiens PTX3 (pPTX3/C)
notes: control group
With B1, the “migrated cell numbers induced by the polypeptide euPTX3” value in [4] (MB231R (MBR), identical molecular number: euPTX3 2.5 μg/mL, RI37 3.7 μg/mL, GI40 4 μg/mL, pPTX3/C 10 μg/mL, FIG. 5B left panel) was “can inhibit migrated cell numbers”. Also, in series [7] (MB231R (MBR), identical molecular number: euPTX3 2.5 μg/mL, RI37 3.7 μg/mL, GI40 4 μg/mL, pPTX3/C 10 μg/mL, FIG. 5B right panel), the “invasive cell numbers induced by the polypeptide euPTX3” value is reported as “can inhibit invasive cell numbers”.
